Measured values reported in ChEMBL document CHEMBL5303304, “EUbOPEN Chemogenomics Library - IncuCyte” (2023).

Tests used:
Type in all cases: toxicity, cell-based
Fibroblast = experiment: Incucyte cell viability with human fibroblast; conditions: 10 µM, compound concentration 10 uM
HEK-293T = experiment: Incucyte cell viability with HEK293T; conditions: human, 10 µM, compound concentration 10 uM
U2OS = experiment: Incucyte cell viability with U2OS; conditions: human, 10 µM, compound concentration 10 uM
Note: unitless GR value; below 1 slowed growth and below 0 cell loss.

C[C@]12CC[C@@H]3c4ccc(C(N)=O)cc4CC[C@H]3[C@@H]1CC=C2c1cncc(F)c1
Growth Rate (Fibroblast; 0 h, replicate number 2): -0.92
Growth Rate (HEK-293T; 0 h, replicate number 1): -0.13
Growth Rate (HEK-293T; 6 h, replicate number 1): 0.93
Growth Rate (HEK-293T; 6 h, replicate number 2): -0.72
Growth Rate (HEK-293T; 12 h, replicate number 1): 0.9
Growth Rate (HEK-293T; 12 h, replicate number 2): 0.31
Growth Rate (HEK-293T; 18 h, replicate number 1): 0.96
Growth Rate (HEK-293T; 18 h, replicate number 2): 0.29
Growth Rate (HEK-293T; 24 h, replicate number 1): 0.97
Growth Rate (HEK-293T; 24 h, replicate number 2): 0.4
Growth Rate (U2OS; 0 h, replicate number 1): 0.64
Growth Rate (U2OS; 12 h, replicate number 1): 0.98
Growth Rate (U2OS; 12 h, replicate number 2): 0.79
Growth Rate (U2OS; 18 h, replicate number 2): 0.92
Growth Rate (U2OS; 24 h, replicate number 2): 1

O=c1c(Br)ccc2n1C[C@@H]1CNC[C@H]2C1
Growth Rate (Fibroblast; 0 h, replicate number 1): 0.52
Growth Rate (Fibroblast; 0 h, replicate number 2): -0.26
Growth Rate (Fibroblast; 6 h, replicate number 1): -0.94
Growth Rate (Fibroblast; 24 h, replicate number 2): 0.89
Growth Rate (HEK-293T; 6 h, replicate number 1): 0.59
Growth Rate (HEK-293T; 12 h, replicate number 1): 0.4
Growth Rate (HEK-293T; 18 h, replicate number 1): 0.61
Growth Rate (HEK-293T; 24 h, replicate number 1): 0.89
Growth Rate (U2OS; 6 h, replicate number 2): 0.92

CCc1cncnc1N1CCN(Cc2nc3cc(C(F)(F)F)ccc3[nH]2)CC1
Growth Rate (Fibroblast; 0 h, replicate number 1): 0.88
Growth Rate (Fibroblast; 6 h, replicate number 1): 1
Growth Rate (Fibroblast; 6 h, replicate number 2): -0.99
Growth Rate (Fibroblast; 12 h, replicate number 1): -1
Growth Rate (Fibroblast; 12 h, replicate number 2): 0.78
Growth Rate (Fibroblast; 18 h, replicate number 1): 0.44
Growth Rate (Fibroblast; 24 h, replicate number 1): 0.31
Growth Rate (Fibroblast; 24 h, replicate number 2): 0.93
Growth Rate (HEK-293T; 6 h, replicate number 1): 0.41
Growth Rate (HEK-293T; 6 h, replicate number 2): 0.28
Growth Rate (HEK-293T; 12 h, replicate number 1): 0.53
Growth Rate (HEK-293T; 12 h, replicate number 2): 0.34
Growth Rate (HEK-293T; 18 h, replicate number 1): 0.65
Growth Rate (HEK-293T; 18 h, replicate number 2): 0.48
Growth Rate (HEK-293T; 24 h, replicate number 1): 0.88
Growth Rate (HEK-293T; 24 h, replicate number 2): 0.58
Growth Rate (U2OS; 0 h, replicate number 2): -0.83
Growth Rate (U2OS; 6 h, replicate number 1): 0.31
Growth Rate (U2OS; 6 h, replicate number 2): 0.19
Growth Rate (U2OS; 12 h, replicate number 1): 0.51
Growth Rate (U2OS; 12 h, replicate number 2): 0.49
Growth Rate (U2OS; 18 h, replicate number 1): 0.53
Growth Rate (U2OS; 18 h, replicate number 2): 0.57
Growth Rate (U2OS; 24 h, replicate number 1): 0.7
Growth Rate (U2OS; 24 h, replicate number 2): 0.84

CCCOc1cnc(CN/C=C2\C(=O)NC(=O)c3ccc(I)cc32)cc1O
Growth Rate (Fibroblast; 0 h, replicate number 1): 0.29
Growth Rate (Fibroblast; 6 h, replicate number 1): -0.88
Growth Rate (Fibroblast; 6 h, replicate number 2): -0.38
Growth Rate (Fibroblast; 12 h, replicate number 1): -0.79
Growth Rate (Fibroblast; 12 h, replicate number 2): -0.06
Growth Rate (Fibroblast; 18 h, replicate number 2): 0.1
Growth Rate (Fibroblast; 24 h, replicate number 1): 0.11
Growth Rate (Fibroblast; 24 h, replicate number 2): 0.16
Growth Rate (HEK-293T; 0 h, replicate number 1): 0.51
Growth Rate (HEK-293T; 6 h, replicate number 1): -0.81
Growth Rate (HEK-293T; 6 h, replicate number 2): -0.9
Growth Rate (HEK-293T; 12 h, replicate number 1): -0.75
Growth Rate (HEK-293T; 12 h, replicate number 2): -0.74
Growth Rate (HEK-293T; 18 h, replicate number 1): -0.63
Growth Rate (HEK-293T; 18 h, replicate number 2): -0.6
Growth Rate (HEK-293T; 24 h, replicate number 1): -0.58
Growth Rate (HEK-293T; 24 h, replicate number 2): -0.47
Growth Rate (U2OS; 0 h, replicate number 2): -1
Growth Rate (U2OS; 12 h, replicate number 1): 0.89
Growth Rate (U2OS; 12 h, replicate number 2): 0.75
Growth Rate (U2OS; 18 h, replicate number 1): 0.45
Growth Rate (U2OS; 18 h, replicate number 2): 0.38
Growth Rate (U2OS; 24 h, replicate number 1): 0.07
Growth Rate (U2OS; 24 h, replicate number 2): 0

CC1CCN(c2ccnc(NCc3cn(C)cn3)n2)CC1 [TP-040]
Growth Rate (Fibroblast; 0 h, replicate number 2): -0.66
Growth Rate (Fibroblast; 6 h, replicate number 1): 0.15
Growth Rate (Fibroblast; 6 h, replicate number 2): 0.66
Growth Rate (Fibroblast; 12 h, replicate number 1): 0.71
Growth Rate (Fibroblast; 12 h, replicate number 2): 0.76
Growth Rate (Fibroblast; 18 h, replicate number 1): 0.71
Growth Rate (Fibroblast; 24 h, replicate number 1): 0.65
Growth Rate (HEK-293T; 6 h, replicate number 2): 0.85
Growth Rate (U2OS; 0 h, replicate number 1): -1
Growth Rate (U2OS; 0 h, replicate number 2): 0.69
Growth Rate (U2OS; 6 h, replicate number 2): 0.76
Growth Rate (U2OS; 12 h, replicate number 2): 0.8
Growth Rate (U2OS; 18 h, replicate number 2): 0.86
Growth Rate (U2OS; 24 h, replicate number 2): 0.84

O=C(Nc1ccc(N2CCC(C(=O)N3CCOCC3)CC2)cc1)c1cnc(Oc2ccccc2)nc1
Growth Rate (Fibroblast; 0 h, replicate number 2): -0.91
Growth Rate (Fibroblast; 6 h, replicate number 1): 0.98
Growth Rate (Fibroblast; 12 h, replicate number 2): 0.75
Growth Rate (Fibroblast; 18 h, replicate number 1): 0.95
Growth Rate (Fibroblast; 18 h, replicate number 2): 0.87
Growth Rate (Fibroblast; 24 h, replicate number 1): 0.99
Growth Rate (Fibroblast; 24 h, replicate number 2): 0.78
Growth Rate (HEK-293T; 0 h, replicate number 2): -0.09
Growth Rate (HEK-293T; 6 h, replicate number 1): -0.02
Growth Rate (HEK-293T; 12 h, replicate number 1): 0.64
Growth Rate (HEK-293T; 18 h, replicate number 1): 0.92
Growth Rate (HEK-293T; 24 h, replicate number 1): 0.95
Growth Rate (U2OS; 6 h, replicate number 1): 0.96
